Data: patent publication US11225605B2, “Polymerizable liquid crystal compound, method for producing polymerizable liquid crystal compound, polymerizable liquid crystal composition, optically anisotropic film, optical film, polarizing plate, and image display device” (FUJIFILM Corporation, priority 2017, dated 2022)

Legend:
[1] = Solubility in methyl ethyl ketone (MEK) and cyclopentanone (CPN); format: physicochemical; settings: for Solubility Evaluation: MEK or CPN; for Solubility CPO: cyclopentanone; for Solubility CPO / Solubility MEK: shaken at 50° C., left at room temperature (23° C.) for 10 minutes; for Solubility MEK: methyl ethyl ketone
Experimental: Specifically, 50 mg of the compound was weighed into a 1.5-mL sample bottle, and a solvent was added thereto until the solid content became 40% by weight (75 mg).
The mixture was thoroughly shaken by the hand at 50° C. and left to stand at room temperature (23° C.) for 10 minutes. Then, this operation was stopped in a case where the mixture was clear upon visual observation, and it was determined that the solubility was 40% by weight. A solvent was added so that the solid content became 35% by weight in a case where there were undissolved residues (+18 mg). The mixture was thoroughly shaken by the hand at 50° C. and left to stand at room temperature (23° C.) for 10 minutes. […] A solvent was added so that the solid content became 30% by weight in a case where there were undissolved residues. The same operation was performed in 5%-by-weight steps and repeated up to 5% by weight. In a case where there were undissolved residues, it was determined that the solubility was less than 5% by weight (<5% by weight), and the operation was stopped. Methyl ethyl ketone (MEK) and cyclopentanone (CPN) were used as solvents for solubility measurement.

[2] = Durability of optically anisotropic film at high temperature and high humidity; format: physicochemical; settings: for Durability 100° C. Relatibe 144 hours: film left 144 hours at relative humidity 95%, variation in Re (550); for Durability of optically anisotropic film: result in words
Experimental: With regard to a test condition for durability, a test in which the film was left to stand for 144 hours in an environment of a relative humidity of 95% at 100° C. was performed as described in Table 6 below.

Solubility CPO [1] [% by weight]	Solubility MEK [1] [% by weight]	Durability of optically anisotropic film [2]	Compound	Solubility Evaluation [1]	Durability 100° C. Relatibe 144 hours [2]
10	1	deteriorated	C=CC(=O)OCC(C)(C)COC(=O)CCC(=O)OCCc1ccc(OC(=O)C2CCC(C(=O)Oc3ccc(OC(=O)C4CCC(C5CCC(CC)CC5)CC4)c4c3SC(=C(C#N)C#N)S4)CC2)cc1 (centres unmarked) [Compound A-1]	C (A solubility in any one of MEK or CPN is less than 15%.)	C (A variation in Re (550) after the test with respect to the initial retardation value is 30% or more.)
1	<1		CCC1CCC(C2CCC(C(=O)Oc3cc(C(C)(C)C)c(OC(=O)C4CCC(C5CCC(CC)CC5)CC4)c4c3SC(=C(C#N)C#N)S4)CC2)CC1 (centres unmarked) [Compound I-1f]	C (A solubility in any one of MEK or CPN is less than 15%.)	
40	40	deteriorate	C=CC(=O)OCCOC(=O)CCC(=O)OCCc1ccc(OC(=O)C2CCC(C(=O)Oc3cc(C(C)(C)C)c(OC(=O)C4CCC(C(=O)Oc5ccc(CCOC(=O)CCC(=O)OCCOC(=O)C=C)cc5)CC4)c4c3SC(=C(C#N)C#N)S4)CC2)cc1 [Compound D-1]	A (A solubility in any one of MEK or CPN is 30% or more.)	C (A variation in Re (550) after the test with respect to the initial retardation value is 30% or more.)
15	5	deteriorated	C=CC(=O)OCC(C)(C)COC(=O)CCC(=O)OCCc1ccc(OC(=O)C2CCC(C(=O)Oc3c(C)cc(OC(=O)C4CCC(C5CCC(CC)CC5)CC4)c4c3SC(=C(C#N)C#N)S4)CC2)cc1 (centres unmarked) [Compound B-1]	B (A solubility in any one of MEK or CPN is 15% or more and less than 30%.)	C (A variation in Re (550) after the test with respect to the initial retardation value is 30% or more.)
15	5		C=CC(=O)OCC(C)(C)COC(=O)CCC(=O)OCCc1ccc(OC(=O)C2CCC(C(=O)Oc3cc(C(C)(C)C)c(OC(=O)C4CCC(C5CCC(CC)CC5)CC4)c4c3SC(=C(C#N)C#N)S4)CC2)cc1 (centres unmarked) [Compound I-13]	B (A solubility in any one of MEK or CPN is 15% or more and less than 30%.)	B (A variation in Re (550) after the test with respect to the initial retardation value is 15% or more and less than 30% of the initial value.)
10	8	deteriorate	C=CC(=O)OCCCCCCOc1ccc(OC(=O)C2CCC(C(=O)Oc3cc(C(C)(C)C)c(OC(=O)C4CCC(C(=O)Oc5ccc(OCCCCCCOC(=O)C=C)cc5)CC4)c4c3SC(=C(C#N)C#N)S4)CC2)cc1 (centres unmarked) [Compound E-1]	C (A solubility in any one of MEK or CPN is less than 15%.)	C (A variation in Re (550) after the test with respect to the initial retardation value is 30% or more.)
30	35		C=CC(=O)OCCOC(=O)CCC(=O)OCCc1ccc(OC(=O)C2CCC(C(=O)Oc3c(C(C)(C)C)cc(OC(=O)C4CCC(C5CCC(CC)CC5)CC4)c4c3SC(=C(C#N)C#N)S4)CC2)cc1 (centres unmarked) [Compound I-2]	A (A solubility in any one of MEK or CPN is 30% or more.)	A (A variation in Re (550) after the test with respect to the initial retardation value is less than 15% of the initial value.)
40	40		C=CC(=O)OCC(C)(C)COC(=O)CCC(=O)OCCc1ccc(OC(=O)C2CCC(C(=O)Oc3cc(C(C)(C)C)c(OC(=O)C4CCC(C(=O)Oc5ccc(CCOC(=O)CCC(=O)OCC(C)(C)COC(=O)C=C)cc5)CC4)c4c3SC(=C(C#N)C#N)S4)CC2)cc1 (centres unmarked) [Compound C-1]	A (A solubility in any one of MEK or CPN is 30% or more.)	
20	10		C=CC(=O)OCCCCCCOc1ccc(OC(=O)C2CCC(C(=O)Oc3c(C(C)(C)C)cc(OC(=O)C4CCC(C5CCC(CC)CC5)CC4)c4c3SC(=C(C#N)C#N)S4)CC2)cc1 (centres unmarked) [Compound I-3]	B (A solubility in any one of MEK or CPN is 15% or more and less than 30%.)	A (A variation in Re (550) after the test with respect to the initial retardation value is less than 15% of the initial value.)
